In patent US11661410B2 (GLOBAL BLOOD THERAPEUTICS, INC., priority 2017, dated 2023):
Like-named read-outs stand apart in the source and are kept apart here.

Biological target: G9a (Homo sapiens (Human), UniProt Q96KQ7)
Assay: G9a AlphaLISA enzymatic activity assay
Format: biochemical
[1] = G9a AlphaLISA, negative log of the IC50 value in molar

Sequence of G9a (Q96KQ7 whole entry): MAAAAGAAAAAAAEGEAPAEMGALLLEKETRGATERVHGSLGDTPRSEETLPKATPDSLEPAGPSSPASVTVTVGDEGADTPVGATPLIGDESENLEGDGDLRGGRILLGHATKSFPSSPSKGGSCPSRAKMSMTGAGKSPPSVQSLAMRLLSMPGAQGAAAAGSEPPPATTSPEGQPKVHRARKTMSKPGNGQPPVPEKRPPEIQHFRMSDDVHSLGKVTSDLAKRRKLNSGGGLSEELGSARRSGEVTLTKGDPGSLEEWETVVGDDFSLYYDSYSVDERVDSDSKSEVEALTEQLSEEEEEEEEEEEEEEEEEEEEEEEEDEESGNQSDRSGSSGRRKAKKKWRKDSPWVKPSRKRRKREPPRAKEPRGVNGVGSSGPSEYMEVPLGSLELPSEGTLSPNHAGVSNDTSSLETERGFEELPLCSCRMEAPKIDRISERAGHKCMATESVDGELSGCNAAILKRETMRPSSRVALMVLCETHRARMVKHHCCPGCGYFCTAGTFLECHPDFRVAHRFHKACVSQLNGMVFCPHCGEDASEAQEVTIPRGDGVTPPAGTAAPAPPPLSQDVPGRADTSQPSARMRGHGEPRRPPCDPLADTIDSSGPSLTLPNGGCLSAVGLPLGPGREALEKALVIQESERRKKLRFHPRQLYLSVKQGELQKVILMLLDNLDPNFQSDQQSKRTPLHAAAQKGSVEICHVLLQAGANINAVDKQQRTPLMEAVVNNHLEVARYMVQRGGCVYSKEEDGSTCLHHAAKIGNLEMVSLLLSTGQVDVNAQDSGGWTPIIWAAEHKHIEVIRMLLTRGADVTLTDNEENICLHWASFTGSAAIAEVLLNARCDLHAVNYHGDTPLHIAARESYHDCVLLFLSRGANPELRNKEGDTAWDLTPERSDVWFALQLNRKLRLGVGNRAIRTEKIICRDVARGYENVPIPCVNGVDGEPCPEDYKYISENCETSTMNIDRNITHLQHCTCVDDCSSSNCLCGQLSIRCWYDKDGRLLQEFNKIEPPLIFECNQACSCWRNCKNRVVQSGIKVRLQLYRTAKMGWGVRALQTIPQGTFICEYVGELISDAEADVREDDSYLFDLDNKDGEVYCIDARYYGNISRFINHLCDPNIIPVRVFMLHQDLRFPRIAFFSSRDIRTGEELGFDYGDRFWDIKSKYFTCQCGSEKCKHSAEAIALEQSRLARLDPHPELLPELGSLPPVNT

Row | SMILES | pIC50 [1] | also measured
1 | COc1cc2nc3c(c(NC4CCN(C(CO)CCl)CC4)c2cc1OC)CCC3 (centres unmarked) [Example 44] | 5.49 | 
2 | COc1cc2nc3c(c(NC4CCN(Cc5ccccc5)CC4)c2cc1OC)CCC3 [Example 45] | 7.07 | 
3 | COc1cc2nc3ccccc3c(NC3CCN(C(C)C)CC3)c2cc1OC [Example 46] |  | pIC50: 6.75
4 | COc1cc2nc3ccccc3c(NC3CCN(C(C)C)CC3)c2cc1OC [Example 47] |  | pIC50: 7.1
5 | COc1cc2nc3c(c(NC4CCN(c5ccccc5OC)CC4)c2cc1OC)CCC3 [Example 49] | 5.63 | 
6 | COc1cc2nc3c(c(NC4CCN(C(=O)COCc5ccccc5)CC4)c2cc1OC)CCC3 [Example 52] | 6.39 | 
7 | COc1cc2nc3c(c(NC4CCN(c5ccncc5F)CC4)c2cc1OC)CCC3 [Example 55, N-{6,7-dimethoxy-1H,2H,3H-cyclopenta[b]quinolin-9-yl}-1-(3-fluoropyridin-4-yl)piperidin-4-amine] | 6.05 | 
8 | COc1cc2nc3c(c(NC4CCN(c5cccc(F)c5F)CC4)c2cc1OC)CCC3 [Example 59, 1-(2,3-difluorophenyl)-N-{6,7-dimethoxy-1H,2H,3H-cyclopenta[b]quinolin-9-yl}piperidin-4-amine] | 5.3 | 
9 | COc1cc2nc3c(c(NCC4CCNC4)c2cc1OC)CCC3 (centres unmarked) [Example 65, 6,7-dimethoxy-N-[(pyrrolidin-3-yl)methyl]-1H,2H,3H-cyclopenta[b]quinolin-9-amine] | 7.4 | 
10 | COc1cc2nc3c(c(NCC4CCCN4)c2cc1OC)CCC3 (centres unmarked) [Example 66, 6,7-dimethoxy-N-[(pyrrolidin-2-yl)methyl]-1H,2H,3H-cyclopenta[b]quinolin-9-amine] | 7.3 | 
11 | COc1cc2nc3c(c(NCC4CCNCC4)c2cc1OC)CCC3 [Example 67, 6,7-dimethoxy-N-[(piperidin-4-yl)methyl]-1H,2H,3H-cyclopenta[b]quinolin-9-amine] | 7 | 
12 | COc1cc2nc3c(c(NC[C@@H]4CCCNC4)c2cc1OC)CCC3 [Example 68, 6,7-dimethoxy-N-{[(3R)-piperidin-3-yl]methyl}-1H,2H,3H-cyclopenta[b]quinolin-9-amine] | 6.9 | 
13 | COc1cc2nc3c(c(NC[C@H]4CCCNC4)c2cc1OC)CCC3 [Example 69] | 7.1 | 
14 | COc1cc2nc3c(c(N[C@@H]4CCCNC4)c2nc1OC)CCC3 [Example 149, (3R)-N-[2,3-dimethoxy-6H,7H, 8Hcyclopenta[b]1,5naphthyridin-9-yl]piperidin-3-amine] | 7.2 | 
15 | COc1cc2nc3c(c(N[C@@H]4CCCNCC4)c2nc1OC)CCC3 [Example 163, (4R)-N-[2,3-dimethoxy-6H,7H,8H-cyclopenta[b]1,5-naphthyridin-9-yl] azepan-4-amine] |  | pIC50: 6.8
16 | COc1cc2nc3c(c(N[C@@H]4CCCN(C)C4)c2nc1OC)CCC3 [Example 164, (3R)-N-[2,3-dimethoxy-6H,7H,8H-cyclopenta[b]1,5-naphthyridin-9-yl]-1-methylpiperidin-3-amine] | 6.2 | 
17 | COc1cc2nc3c(c(N[C@@H]4CCCN(C)CC4)c2nc1OC)CCC3 [Example 165, (4R)-N-{2,3-dimethoxy-6H,7H,8H-cyclopenta[b]1,5-naphthyridin-9-yl}-1-methylazepan-4-amine] | 7 | 
18 | COc1cc2nc3c(c(N[C@H]4CNC[C@@H](C)C4)c2cc1OC)CCC3 [Example 286, (3R,5S)-N-{6,7-dimethoxy-1H,2H,3H-cyclopenta[b]quinolin-9-yl}-5-methylpiperidin-3-amine] | 8 | 
19 | COc1cc2nc3c(c(N[C@@H]4CCCCNC4)c2nc1OC)CCC3 [Example 402] | 7.1 | 
20 | COc1cc2nc3c(c(NCCNC(C)C)c2cc1OC)CCC3 [Example 403, 6,7-dimethoxy-N-{2-[(propan-2-yl)amino]ethyl}-1H,2H,3H-cyclopenta[b]quinolin-9-amine] | 7.5 | 
21 | COc1cc2nc3c(c(N[C@@H]4CCCCN(C)C4)c2nc1OC)CCC3 [Example 404, (3R)-N-[2,3-dimethoxy-6H,7H,8H-cyclopenta[b]1,5-naphthyridin-9-yl]-1-methylazepan-3-amine] | 6.6 | 
22 | [2H]C([2H])([2H])Oc1cc2nc3c(c(N[C@@H]4CCCNC4)c2cc1OC([2H])([2H])[2H])CCC3 [Example 405, (3R)-N-[6,7-di(2H3)methoxy-1H,2H,3H-cyclopenta[b]quinolin-9-yl]piperidin-3-amine] |  | IC50 [1]: 12.6 nM
23 | CCOc1cc2nc3c(c(N[C@@H]4CCCNC4)c2cc1OCC)CCC3 [Example 406, (3R)-N-[6,7-di(2H3)ethoxy-1H,2H,3H-cyclopenta[b]quinolin-9-yl]piperidin-3-amine] |  | IC50 [1]: > 10000 nM

Now from value to compound, other results behind:

Row | pIC50 [1] | SMILES | also measured
24 | 5.53 | COc1cc2nc3c(c(NC4CCN(c5cccc(Cl)c5)CC4)c2cc1OC)CCC3 [Example 50] | 
25 | 6.45 | COc1cc2c(NC3CCN(C(C)C)CC3)c3c(nc2cc1OCCCO)CCC3 [Example 51] | 
26 | 6.54 | COc1cc2c(NC3CCN(C(C)C)CC3)c3c(nc2cc1OCCO)CCC3 [Example 53, 2-[(7-methoxy-9-{[1-(propan-2-yl)piperidin-4-yl]amino}-1H,2H,3H-cyclopenta[b]quinolin-6-yl)oxy]ethan-1-ol] | 
27 | 6.24 | COc1cc2nc3c(c(NC4CCN(C(=O)CO)CC4)c2cc1OC)CCC3 [Example 54, 1-[4-({6,7-dimethoxy-1H,2H,3H-cyclopenta[b]quinolin-9-yl}amino)piperidin-1-yl]-2-hydroxyethan-1-one] | 
28 | 6.72 | COc1cc2c(NC3CCN(C(C)C)CC3)c3c(nc2cc1C1CC1)CCC3 [Example 57, N-{6-cyclopropyl-7-methoxy-1H,2H,3H-cyclopenta[b]quinolin-9-yl}-1-(propan-2-yl)piperidin-4-amine] | 
29 | 6.12 | COc1cc2nc3c(c(NC4CCN(C(N)=O)CC4)c2cc1OC)CCC3 [Example 58, 4-({6,7-dimethoxy-1H,2H,3H-cyclopenta[b]quinolin-9-yl}amino)piperidine-1-carboxamide] | 
30 | 7.4 | COc1cc2nc3c(c(NC4CCN(C5CCCC5)CC4)c2cc1OC)CCC3 [Example 60, 1-cyclopentyl-N-{6,7-dimethoxy-1H,2H,3H-cyclopenta[b]quinolin-9-yl}piperidin-4-amine] | 
31 | 6.7 | COCCN1CCC(Nc2c3c(nc4cc(OC)c(OC)cc24)CCC3)CC1 [Example 61, N-{6,7-dimethoxy-1H,2H,3H-cyclopenta[b]quinolin-9-yl}-1-(2-methoxyethyl)piperidin-4-amine] | 
32 | 7.5 | COc1cc2nc3c(c(N[C@@H]4CCCNCC4)c2cc1OC)CCC3 [Example 62, (4R)-N-{6,7-dimethoxy-1H,2H,3H-cyclopenta[b]quinolin-9-yl}azepan-4-amine] | 
33 | 7.5 | COc1cc2nc3c(c(N[C@@H]4CCCN(C)CC4)c2cc1OC)CCC3 [Example 63, (4R)-N-{6,7-dimethoxy-1H,2H,3H-cyclopenta[b]quinolin-9-yl}-1-methylazepan-4-amine] | 
34 | 7.6 | CCN1CCC[C@@H](Nc2c3c(nc4cc(OC)c(OC)cc24)CCC3)CC1 [Example 64, (4R)-N-{6,7-dimethoxy-1H,2H,3H-cyclopenta[b]quinolin-9-yl}-1-ethylazepan-4-amine] | 
35 | 6.8 | COc1cc2nc3c(c(NC4CCN(C(C)C)CC4)c2nc1OC)CCC3 [Example 134, N-[2,3-dimethoxy-6H,7H,8H-cyclopenta[b]1,5-naphthyridin-9-yl]-1-(propan-2-yl)piperidin-4-amine] | 
